Laboratory results from PubChem BioAssay (NCI).
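96-well plates; 48 h exposure; 5 concentrations. Endpoints by linear interpolation between flanking doses. Not reached: highest tested concentration assigned. Abbreviation: GI50, concentration required for 50% inhibition of growth. TGI: concentration producing complete growth inhibition.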

Assays:
Assay in all cases: NCI-60 cell line screen, 48 h
[1] = system: 786-0 renal
[2] = system: A498 renal
[3] = system: A549 NSCLC
[4] = system: ACHN renal
[5] = system: BT-549 breast
[6] = system: CAKI-1 renal
[7] = system: CCRF-CEM leukemia
[8] = system: COLO 205 colon
[9] = system: DU-145 prostate
[10] = system: EKVX NSCLC
[11] = system: HCC-2998 colon
[12] = system: HCT-116 colon
[13] = system: HCT-15 colon
[14] = system: HL-60(TB) leukemia
[15] = system: HOP-62 NSCLC
[16] = system: HOP-92 NSCLC
[17] = system: HS 578T breast
[18] = system: HT29 colon
[19] = system: IGROV1 ovarian
[20] = system: K-562 leukemia
[21] = system: KM12 colon
[22] = system: LOX IMVI melanoma
[23] = system: M14 melanoma
[24] = system: MALME-3M melanoma
[25] = system: MCF7 breast
[26] = system: MDA-MB-231 breast
[27] = system: MDA-MB-435
[28] = system: NCI-H226 lung
[29] = system: NCI-H23 lung
[30] = system: NCI-H460 lung
[31] = system: NCI-H522 lung
[32] = system: NCI/ADR-RES ovarian
[33] = system: OVCAR-3 ovarian
[34] = system: OVCAR-4 ovarian
[35] = system: OVCAR-5 ovarian
[36] = system: OVCAR-8 ovarian
[37] = system: PC-3 prostate
[38] = system: RPMI-8226 leukemia
[39] = system: RXF 393 renal
[40] = system: SF-268 CNS
[41] = system: SF-295 CNS
[42] = system: SF-539 CNS
[43] = system: SK-MEL-2 melanoma
[44] = system: SK-MEL-28 melanoma
[45] = system: SK-MEL-5 melanoma
[46] = system: SK-OV-3 ovarian
[47] = system: SN12C renal
[48] = system: SNB-19 CNS
[49] = system: SNB-75 CNS
[50] = system: SW-620 colon
[51] = system: T-47D breast
[52] = system: TK-10 renal
[53] = system: U251 CNS
[54] = system: UACC-257 melanoma
[55] = system: UACC-62 melanoma
[56] = system: UO-31 renal

O=C(O)c1cc2c(c3ccsc13)-c1ccccc1CC2
GI50 [1]: 49.7 µM | TGI [1]: > 100 µM | GI50 [2]: 19.2 µM | TGI [2]: 61.8 µM | GI50 [3]: 36.1 µM | TGI [3]: > 100 µM | GI50 [4]: 36.6 µM | TGI [4]: > 100 µM | GI50 [5]: 41.1 µM | TGI [5]: > 100 µM | GI50 [6]: 52 µM | TGI [6]: > 100 µM | GI50 [7]: 37.6 µM | TGI [7]: > 100 µM | GI50 [8]: 40.5 µM | TGI [8]: > 100 µM | GI50 [9]: 44.2 µM | TGI [9]: > 100 µM | GI50 [10]: 50.4 µM | TGI [10]: > 100 µM | GI50 [11]: 24.2 µM | TGI [11]: 69.6 µM | GI50 [12]: 34.9 µM | TGI [12]: > 100 µM | GI50 [13]: 39 µM | TGI [13]: > 100 µM | GI50 [14]: 37.5 µM | TGI [14]: > 100 µM | GI50 [15]: 31.8 µM | TGI [15]: > 100 µM | GI50 [16]: 30.3 µM | TGI [16]: > 100 µM | GI50 [17]: 30.5 µM | TGI [17]: 88.9 µM | GI50 [18]: 39.4 µM | TGI [18]: > 100 µM | GI50 [19]: 33.9 µM | TGI [19]: > 100 µM | GI50 [20]: 40.6 µM | TGI [20]: > 100 µM | GI50 [21]: 34.3 µM | TGI [21]: > 100 µM | GI50 [22]: 40.8 µM | TGI [22]: > 100 µM | GI50 [23]: 42.2 µM | TGI [23]: > 100 µM | GI50 [24]: 18.8 µM | TGI [24]: 59.6 µM | GI50 [25]: 42 µM | TGI [25]: > 100 µM | GI50 [26]: 27.6 µM | TGI [26]: > 100 µM | GI50 [27]: 42.7 µM | TGI [27]: > 100 µM | GI50 [28]: 34.8 µM | TGI [28]: > 100 µM | GI50 [29]: 30.1 µM | TGI [29]: 79.5 µM | GI50 [30]: 33.2 µM | TGI [30]: > 100 µM | GI50 [31]: 29 µM | TGI [31]: 82.1 µM | GI50 [32]: 33.7 µM | TGI [32]: > 100 µM | GI50 [33]: 28.8 µM | TGI [33]: > 100 µM | GI50 [34]: 23.3 µM | TGI [34]: > 100 µM | GI50 [35]: 60.2 µM | TGI [35]: > 100 µM | GI50 [36]: 40.7 µM | TGI [36]: > 100 µM | GI50 [37]: 40.9 µM | TGI [37]: > 100 µM | GI50 [38]: 43.4 µM | TGI [38]: > 100 µM | GI50 [39]: 36.6 µM | TGI [39]: > 100 µM | GI50 [40]: 44 µM | TGI [40]: > 100 µM | GI50 [41]: 29.5 µM | TGI [41]: > 100 µM | GI50 [42]: 36.5 µM | TGI [42]: > 100 µM | GI50 [43]: 26.5 µM | TGI [43]: 87.5 µM | GI50 [44]: 85.5 µM | TGI [44]: > 100 µM | GI50 [45]: 31.3 µM | TGI [45]: > 100 µM | GI50 [46]: 85.1 µM | TGI [46]: > 100 µM | GI50 [47]: 32.1 µM | TGI [47]: > 100 µM | GI50 [48]: 47 µM | TGI [48]: > 100 µM | GI50 [49]: 86.2 µM | TGI [49]: > 100 µM | GI50 [50]: 40.2 µM | TGI [50]: > 100 µM | GI50 [51]: 44.7 µM | TGI [51]: > 100 µM | GI50 [52]: 30.3 µM | TGI [52]: 98.9 µM | GI50 [53]: 36.8 µM | TGI [53]: > 100 µM | GI50 [54]: 53.4 µM | TGI [54]: > 100 µM | GI50 [55]: 33.9 µM | TGI [55]: > 100 µM | GI50 [56]: 29.3 µM | TGI [56]: 79.5 µM
